Reference: ChEMBL document CHEMBL1649268, “Comparative in vitro activity profile of oritavancin against recent gram-positive clinical isolates” (2009)

Legend:
Format in all cases: functional
[1] = test system: Streptococcus pneumoniae; experiment: Antimicrobial activity against Streptococcus pneumoniae clinical isolates assessed as percent susceptible isolates by broth microdilution method in presence of clavulanate
[2] = test system: Streptococcus pneumoniae; experiment: Antimicrobial activity against Streptococcus pneumoniae clinical isolates assessed as resistant isolates by broth microdilution method in presence of clavulanate
[3] = test system: Streptococcus pneumoniae; experiment: Antimicrobial activity against Streptococcus pneumoniae clinical isolates by broth microdilution method in presence of clavulanate
[4] = test system: Streptococcus pneumoniae; experiment: Antimicrobial activity against penicillin-intermediate Streptococcus pneumoniae clinical isolates assessed as percent susceptible isolates by broth microdilution method in presence of clavulanate
[5] = test system: Streptococcus pneumoniae; experiment: Antimicrobial activity against penicillin-intermediate Streptococcus pneumoniae clinical isolates by broth microdilution method in presence of clavulanate
[6] = test system: Streptococcus pneumoniae; experiment: Antimicrobial activity against penicillin-susceptible Streptococcus pneumoniae clinical isolates by broth microdilution method in presence of clavulanate
[7] = test system: Streptococcus pneumoniae; experiment: Antimicrobial activity against penicillin-susceptible Streptococcus pneumoniae clinical isolates assessed as resistant isolates by broth microdilution method in presence of clavulanate
[8] = test system: Streptococcus pneumoniae; experiment: Antimicrobial activity against penicillin-susceptible Streptococcus pneumoniae clinical isolates assessed as percent susceptible isolates by broth microdilution method in presence of clavulanate
[9] = test system: Streptococcus pneumoniae; experiment: Antimicrobial activity against penicillin-resistant Streptococcus pneumoniae clinical isolates by broth microdilution method in presence of clavulanate
[10] = test system: Streptococcus pneumoniae; experiment: Antimicrobial activity against penicillin-intermediate Streptococcus pneumoniae clinical isolates assessed as resistant isolates by broth microdilution method in presence of clavulanate
[11] = test system: Streptococcus pneumoniae; experiment: Antimicrobial activity against penicillin-resistant Streptococcus pneumoniae clinical isolates assessed as resistant isolates by broth microdilution method in presence of clavulanate
[12] = test system: Streptococcus pneumoniae; experiment: Antimicrobial activity against penicillin-resistant Streptococcus pneumoniae clinical isolates assessed as percent susceptible isolates by broth microdilution method in presence of clavulanate

In the case of CC1(C)S[C@@H]2[C@H](NC(=O)[C@H](N)c3ccc(O)cc3)C(=O)N2[C@H]1C(=O)O [AMOXICILLIN], the Activity [1] is reported as 93.1%, the Activity [2] is reported as 1.5% and the MIC90 [3] is reported as 2 µg/mL. For the same compound, the Activity [4] was 99.5%, the MIC90 [5] was 1 µg/mL and the MIC90 [6] was 0.03 µg/mL. For the same compound, the Activity [7] was 0%, the Activity [8] was 100% and the MIC90 [9] was 8 µg/mL. For the same compound, the Activity [10] was 0%, the Activity [11] was 10.1% and the Activity [12] was 53.4%.
